Results taken from patent US9139577B2, “Sulfoximine substituted quinazolines for pharmaceutical compositions” (Boehringer Ingelheim International GmbH, priority 2013, dated 2015).

molecular target: MNK2a (Homo sapiens (Human), UniProt Q9HBH9); test: MNK2a in vitro kinase assay (Assay 2), ADP-Glo; format: biochemical; settings: read-out: MNK2 IC50
Experimental: B. MNK2a In vitro Kinase Assay (Assay 2)
ASSAY SETUP: The inhibition of kinase activity of MNK2a was assessed using pre-activated GST-MNK2a. The white, 384-well OptiPlate F plates were purchased from PerkinElmer. The ADP-Glo Kinase Assay (including ultra pure ATP) was purchased from Promega (V9103). Activated MNK2a was obtained as described in WO2011/104340. […] ID No. 5 of WO 2011/104340 by the C-terminal —CONH2 group, was purchased from Thermo Fisher Scientific. All other materials were of highest grade commercially available. Compounds are tested in either serial dilutions or single dose concentrations. The compound stock solutions are 10 mM in 100% DMSO The serial compound dilutions are prepared in 100% DMSO followed by 1:27.3 intermediate dilution in assay buffer. The final DMSO concentration in assay will be <3%. In the 384-well plates 3 μl of test compound from the intermediate dilution is mixed with 4 μl of the activated MNK2 enzyme (final concentration of 10 nM) and 4 μl of the peptide (final concentration of 25 μM)/ultra pure ATP (final concentration of 20 μM), all dissolved in assay buffer. This step is followed by an incubation time of 90 min, then 10 μl of ADP Glo reagent are added, followed by 40 min of incubation. Then 20 μl of kinase detection reagent are admixed. The plates are sealed and after an incubation period of 30 min, the luminescence signal is measured in an Envision reader to determine the amount of produced ADP. All incubation steps are performed at room temperature. The assay buffer consists of 20 mM HEPES, 2 mM DTT, 0.01% BSA, 20 mM MgCl2 and 0.1% Pluronic F-127.
The luminescent signal generated is proportional to the ADP concentration produced and is correlated with activated MNK2 activity. The analysis of the data is performed by the calculation of the percentage of ATP consumption of activated MNK2 in the presence of the test compound compared to the consumption of ATP in the presence of activated MNK2 without compound. (RLU(sample)−RLU(low control))*100/(RLU(high value)−RLU(low control)) [RLU=relative luminescence units]
[…] values based on dose response curves are calculated with the AssayExplorer software.

MNK2a, sequence (Q9HBH9 whole entry): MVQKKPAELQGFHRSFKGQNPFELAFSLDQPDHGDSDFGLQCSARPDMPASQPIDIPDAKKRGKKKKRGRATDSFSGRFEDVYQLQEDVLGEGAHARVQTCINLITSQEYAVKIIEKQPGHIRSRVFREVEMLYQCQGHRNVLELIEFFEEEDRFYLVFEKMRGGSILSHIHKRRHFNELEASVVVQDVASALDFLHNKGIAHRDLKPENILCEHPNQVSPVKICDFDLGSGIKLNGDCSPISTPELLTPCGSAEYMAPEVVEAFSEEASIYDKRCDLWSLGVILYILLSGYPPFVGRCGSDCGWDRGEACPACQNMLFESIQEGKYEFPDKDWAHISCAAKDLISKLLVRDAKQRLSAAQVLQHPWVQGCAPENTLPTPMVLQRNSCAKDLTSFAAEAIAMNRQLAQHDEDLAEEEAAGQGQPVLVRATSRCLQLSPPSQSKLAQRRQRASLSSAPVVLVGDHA

IC50 | Compound
1 nM | Cc1cc(N=S2(=O)CCC2)cc2ncnc(Nc3ccc(F)cc3O[C@H](C)C(=O)NC(C)C#N)c12 (some centres unmarked) [Example 4.132]
6 nM | Cc1cc(N=S2(=O)CCCC2)cc2ncnc(Nc3ccc(F)cc3O[C@H](C)C(=O)N3CC[S+]([O-])CC3)c12 [Example 4.004]
2 nM | CC(C#N)NC(=O)[C@@H](C)Oc1cc(F)ccc1Nc1ncnc2cc(N=S3(=O)CCC3)cc(F)c12 (some centres unmarked) [Example 4.099]
2 nM | COc1cc(N=S2(=O)CCC2)cc2ncnc(Nc3ccc(F)cc3O[C@H](C)C(=O)NCC(F)F)c12 [Example 6.002]
4 nM | COc1cc(N=S(C)(=O)C2CC2)cc2ncnc(Nc3ccc(F)cc3O[C@H](C)C(=O)NCC(F)(F)F)c12 (some centres unmarked) [Example 2.030]
1 nM | Cc1cc(N=S2(=O)CC[C@H](N)C2)cc2ncnc(Nc3ccc(F)cc3O[C@H](C)C(=O)NCC(F)(F)F)c12 (some centres unmarked) [Example 2.019]
3 nM | Cc1cc(N=S2(=O)CCC2)cc2ncnc(Nc3cccnc3O[C@H](C)C(=O)NCC(F)(F)F)c12 [Example 2.039]
1 nM | Cc1cc(N=S2(=O)CCC2)cc2ncnc(Nc3ccc(F)cc3O[C@H](C)C(=O)NCC(F)F)c12 [Example 4.141]
2 nM | Cc1cc(N=S2(=O)CCC(O)C2)cc2ncnc(Nc3ccc(F)cc3O[C@H](C)C(=O)NCC(F)(F)F)c12 (some centres unmarked) [Example 2.023]
2 nM | Cc1cc(N=S2(=O)CCC2)cc2ncnc(Nc3ccc(F)cc3O[C@H](CO)C(F)(F)F)c12 [Example 2.043]
7 nM | Cc1cc(N=S2(=O)CCCC2)cc2ncnc(Nc3ccc(F)cc3O[C@H](C)C(=O)N3CCC3)c12 [Example 4.070]
9 nM | CC#CCNC(=O)[C@@H](C)Oc1cc(F)ccc1Nc1ncnc2cc(N=S(C)(C)=O)cc(C)c12 [Example 4.066]
2 nM | Cc1cc(N=S2(=O)CCC2)cc2ncnc(Nc3ccc(F)cc3O[C@H](C)C(=O)NC(C)C(F)F)c12 (some centres unmarked) [Example 4.109]
2 nM | Cc1cc(N=S2(=O)CCCC2)cc2ncnc(Nc3ccc(F)cc3O[C@H](C)C(=O)NCC#N)c12 [Example 4.007]
2 nM | C[C@@H](Oc1cc(F)ccc1Nc1ncnc2cc(N=S3(=O)CCC3)cc(C(F)F)c12)C(=O)NCC(F)(F)F [Example 4.110]
1 nM | Cc1cc(N=S2(=O)CC(C)(C)C2)cc2ncnc(Nc3ccc(Cl)cc3O[C@H](C)C(=O)N[C@@H](C)C(F)(F)F)c12 [Example 2.034]
2 nM | C[C@@H](Oc1cc(F)ccc1Nc1ncnc2cc(N=S(C)(C)=O)cc(Cl)c12)C(=O)NC(CF)CF [Example 4.120]
3 nM | Cc1cc(N=S(C)(=O)C2CCNC2)cc2ncnc(Nc3ccc(F)cc3O[C@H](C)C(=O)NCC(F)(F)F)c12 (some centres unmarked) [Example 2.028]
4 nM | C[C@@H](Oc1cc(F)ccc1Nc1ncnc2cc(N=S(C)(C)=O)cc(F)c12)C(=O)NCC(F)F [Example 4.133]
5 nM | Cc1cc(N=S2(=O)CCCC2)cc2ncnc(Nc3ccc(F)cc3O[C@H](C)C(=O)N3CCCC3)c12 [Example 4.006]
1 nM | Cc1cc(N=S2(=O)CC3(COC3)C2)cc2ncnc(Nc3ccc(Cl)cc3O[C@H](C)C(=O)N[C@@H](C)C(F)(F)F)c12 [Example 2.045]
2 nM | C[C@@H](Oc1cc(F)ccc1Nc1ncnc2cc(N=S(C)(C)=O)cc(Cl)c12)C(=O)NCC(F)F [Example 4.080]
2 nM | C[C@@H](Oc1cc(F)ccc1Nc1ncnc2cc(N=S(C)(C)=O)cc(Cl)c12)C(=O)NCCF [Example 4.078]
